Earlier results in US8697713B2, “Pyrrolopyrimidines for pharmaceutical compositions” (Boehringer Ingelheim International GmbH, priority 2006, dated 2014).

Key:
human Mnk2 protein = human Mnk2 protein (Homo sapiens, UniProt Q9HBH9)
phosphorylated eIF4E = settings: cell culture cells transfected with Mnk2 (Mnk2a or Mnk2b) or Mnk1

Sequence of human Mnk2 protein (Q9HBH9 whole entry): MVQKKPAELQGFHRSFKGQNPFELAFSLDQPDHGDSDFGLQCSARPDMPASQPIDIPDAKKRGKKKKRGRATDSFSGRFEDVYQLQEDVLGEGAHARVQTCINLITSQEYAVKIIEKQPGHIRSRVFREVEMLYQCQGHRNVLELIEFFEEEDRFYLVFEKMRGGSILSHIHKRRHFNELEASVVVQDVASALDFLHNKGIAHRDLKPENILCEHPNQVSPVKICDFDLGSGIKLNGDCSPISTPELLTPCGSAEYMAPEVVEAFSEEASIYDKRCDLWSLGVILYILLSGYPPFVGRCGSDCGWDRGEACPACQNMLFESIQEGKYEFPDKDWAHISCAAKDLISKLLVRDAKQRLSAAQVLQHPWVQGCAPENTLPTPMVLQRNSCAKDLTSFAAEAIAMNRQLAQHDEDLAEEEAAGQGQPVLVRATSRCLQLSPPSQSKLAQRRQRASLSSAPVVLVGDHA

Row | binds the human Mnk2 protein (human Mnk2 protein) | Structure (SMILES) | reduction of phosphorylated eIF4E (phosphorylated eIF4E)
1 | binds | COC(=O)c1ccc(O)cc1 [4-hydroxybenzoic acid methyl ester] | 
2 |  | Nc1ncnc2n[nH]c(Nc3ccc(F)cc3)c12 [CGP57380] | strong reduction
